For 31 compounds, TGI and GI50 results are on record in PubChem BioAssay (NCI).

The structures appear in SMILES notation. “And” between values parts separate entries of the source, which are not always exact repeats. Equal entries are not always repeated.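 Method: 48-hour compound exposure of cells in 96-well plates, five concentrations, linear interpolation of endpoints. GI50 = concentration required for 50% inhibition of growth. TGI is the concentration that stops growth completely.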

One assay relates to 786-0 renal. In words: NCI-60 cell line screen, 48 h.
`CC1(Cl)C(=O)NC(=O)N(C2CC(N=[N+]=[N-])C(CO)O2)C1N=[N+]=[N-]` (stereo unspecified) gave a TGI of over 100 µM.

`COc1ccc2ccc3c(c2c1)CN1CCc2cc(OC)c(OC)cc2C1C3` (stereo unspecified) displayed a TGI of over 100 µM. As to `OCCC1(O)CCC(O)CC1` (stereo unspecified), the TGI is over 100 µM. The same measure, in the same setting: the same measure for `CCCCNC1=C(C(=O)OCC)C(=O)CO1`: over 100 µM. In the case of `CC(C)CC(=O)[O-].CC(C)CC(=O)[O-].N.N.N.N.[Co+3].[O-][Cl+3]([O-])([O-])[O-]`, the GI50 is over 100 µM and the TGI is over 100 µM. `COc1cc(C2c3cc4c(cc3C(NCC(O)CO)C3COC(=O)[C@H]23)OCO4)cc(OC)c1OC` (stereo partly specified) registered a TGI of over 100 µM. `CC[CH2][Pb]([CH2]CC)([CH2]CC)[O]C(=O)C(F)(F)F`: the GI50 was 0.165 µM and the TGI was 0.376 µM. `COC(=O)CC(=O)C[P+](c1ccccc1)(c1ccccc1)c1ccccc1` displayed a TGI of over 218 µM. In the case of `CCCCN(CCCC)C(=O)C(=O)C(C#N)c1ccc(C)cc1` (stereo unspecified), the TGI is over 100 µM. On the same count and under the same terms, the same measure for `Cc1ccc(S(=O)(=O)C(CC(=O)N2CCCC2)C(=O)c2ccccc2)cc1` (stereo unspecified): over 100 µM; for `CC1(C)CC(/C=C2/OC(=O)c3ccccc32)=C(C#N)C(=O)O1`: over 100 µM. Still for that read-out and setting: the same measure for `Cc1nc2c(nc1Cl)nc(Oc1ccc(Cl)cc1)c1ccccc12`: 38.3 µM; for `CC(=O)Nc1ccccc1Sc1ccccc1`: over 100 µM.

The compound `COC(=O)C[C@H]1CCC2(OCCO2)[C@]1(C)C(=O)OC` displayed a TGI of over 100 µM.

On to `O=C(CN1CCOCC1)Nc1ccc(Cn2nnc3c2C(=O)c2nnn(Cc4ccc(NC(=O)CN5CCOCC5)cc4)c2C3=O)cc1`, for which the GI50 was 1.94 µM and the TGI came out at 5.27 µM. With `CCCCCCCCCC[C@@H](O)[C@@H]1CC[C@H]([C@H]2CC[C@@H]([C@@H](O)CCCCCCCCCC[C@H]3CC(CC(C)=O)C(=O)O3)O2)O1` (stereo partly specified), the TGI was 28.5 µM. `CCOc1ccc2c(c1)[n+]([O-])c(S(=O)(=O)c1ccc(C)cc1)c(N)[n+]2[O-]` yielded a TGI of over 100 µM. The same measure, in the same setting: the figure for `CC12CC[C@@H](C(C)(C)O)C1[C@@H](O)CC1(C)C2CCC2[C@@]3(C)CC[C@H](O)C(C)(C)C3C(O)C[C@]21C` (stereo partly specified) is 33.8 µM; for `CCOC(=O)NC(=O)c1cn(C2OC(COC(=O)CCCCCCCCC(=O)OCC3OC(n4cc(C(=O)NC(=O)OCC)c(=O)[nH]c4=O)C(O)C3O)C(O)C2O)c(=O)[nH]c1=O` (stereo unspecified) it is over 100 µM. Still for that read-out and setting: the figure for `Cc1ccc(C)c(NC(=O)CC/C(=N\NC(=O)C(=O)NN)C(C)C(=O)c2ccc(O)cc2)c1` (stereo unspecified) is over 100 µM; for `N=C1CSC2=NC3=C(CCC/C3=C\c3ccccc3)C(c3ccccc3)N12` (stereo unspecified) it is 18.3 µM. Same read-out and setting: the figure for `COc1ccc(CNc2cc(OC)c(OC)c(OC)c2)cc1` is over 100 µM.

As for `COc1ccccc1C1C(C(=O)Nc2ccccc2)=C(C)NC(C)=C1C(=O)Nc1ccccc1`, the TGI is over 100 µM. With `OCc1ccc2[n+](c1)CCC1c3ccccc3NC21` (stereo unspecified), the TGI was over 300 µM.

For the compound `COc1cccc(-c2cc(=O)c3cc(N(C)C)ccc3[nH]2)c1`, the GI50 was 0.0368 µM and 0.0096 µM; the TGI was > 100 µM and 36.7 µM.

Turning to `CCCCCCCCCCCC(=O)CC(=O)c1c(O)cccc1O`, the TGI is 39.4 µM. Still for that read-out and setting: the figure for `CN(C(=O)C12C3C4C1C1C2C3C41C(=O)C(C)(C)C)C(C)(C)C` (stereo unspecified) is over 100 µM.

On to `Cc1cc2c(cc1C)[n+](=O)c(C(=O)CC(=O)C(=O)Nc1c(C(C)C)cccc1C(C)C)c(C)n2[O-]`, for which the TGI was over 100 µM. On the same count and under the same terms, the figure for `COc1ccc2cc1Oc1ccc(cc1)CC1c3cc(c(OC)cc3CCN1C)Oc1c3c(cc4c1C(C2)N(C)CC4)OCO3` (stereo unspecified) is 25.3 µM; for `COc1ccc(OC)c(NC(=O)C(=O)C(C(C)=O)c2nc3ccc(Cl)cc3[nH]c2=O)c1` (stereo unspecified) it is over 50 µM. Still for that read-out and setting: the figure for `N#CC(C(=N/O)/C(=N/O)C(C#N)c1ccc(Cl)cc1)c1ccc(Cl)cc1` (stereo unspecified) is over 100 µM.

In a further assay the test system is HCC-2998 colon. In words: NCI-60 cell line screen, 48 h.
Take `CC1(Cl)C(=O)NC(=O)N(C2CC(N=[N+]=[N-])C(CO)O2)C1N=[N+]=[N-]` (stereo unspecified): the TGI is over 100 µM. Take `COc1ccc2ccc3c(c2c1)CN1CCc2cc(OC)c(OC)cc2C1C3` (stereo unspecified): the TGI was over 100 µM. Regarding `OCCC1(O)CCC(O)CC1` (stereo unspecified), the TGI is over 100 µM. On the same count and under the same terms, the same measure for `CCCCNC1=C(C(=O)OCC)C(=O)CO1`: over 100 µM.

As for `CC(C)CC(=O)[O-].CC(C)CC(=O)[O-].N.N.N.N.[Co+3].[O-][Cl+3]([O-])([O-])[O-]`, the GI50 was over 100 µM and the TGI was over 100 µM. Regarding `COc1cc(C2c3cc4c(cc3C(NCC(O)CO)C3COC(=O)[C@H]23)OCO4)cc(OC)c1OC` (stereo partly specified), the TGI was over 100 µM.

On to `CC[CH2][Pb]([CH2]CC)([CH2]CC)[O]C(=O)C(F)(F)F`, for which the GI50 is 0.163 µM and the TGI turned out to be 0.343 µM.

Take `COC(=O)CC(=O)C[P+](c1ccccc1)(c1ccccc1)c1ccccc1`: the TGI is over 218 µM.

For the compound `CCCCN(CCCC)C(=O)C(=O)C(C#N)c1ccc(C)cc1` (stereo unspecified), the TGI was over 100 µM. On the same count and under the same terms, the same measure for `Cc1ccc(S(=O)(=O)C(CC(=O)N2CCCC2)C(=O)c2ccccc2)cc1` (stereo unspecified): over 100 µM; for `CC1(C)CC(/C=C2/OC(=O)c3ccccc32)=C(C#N)C(=O)O1`: over 100 µM; for `Cc1nc2c(nc1Cl)nc(Oc1ccc(Cl)cc1)c1ccccc12`: over 100 µM. For `CC(=O)Nc1ccccc1Sc1ccccc1`, the TGI is over 100 µM. Turning to `O=C(CN1CCOCC1)Nc1ccc(Cn2nnc3c2C(=O)c2nnn(Cc4ccc(NC(=O)CN5CCOCC5)cc4)c2C3=O)cc1`, the GI50 is 0.348 µM and the TGI was 1.34 µM. Turning to `CCCCCCCCCC[C@@H](O)[C@@H]1CC[C@H]([C@H]2CC[C@@H]([C@@H](O)CCCCCCCCCC[C@H]3CC(CC(C)=O)C(=O)O3)O2)O1` (stereo partly specified), the TGI was found to be 47 µM.

`CCOc1ccc2c(c1)[n+]([O-])c(S(=O)(=O)c1ccc(C)cc1)c(N)[n+]2[O-]` showed a TGI of over 100 µM. In turn, `CC12CC[C@@H](C(C)(C)O)C1[C@@H](O)CC1(C)C2CCC2[C@@]3(C)CC[C@H](O)C(C)(C)C3C(O)C[C@]21C` (stereo partly specified) had a TGI of 36.2 µM. On to `CCOC(=O)NC(=O)c1cn(C2OC(COC(=O)CCCCCCCCC(=O)OCC3OC(n4cc(C(=O)NC(=O)OCC)c(=O)[nH]c4=O)C(O)C3O)C(O)C2O)c(=O)[nH]c1=O` (stereo unspecified), for which the TGI is over 100 µM. With `Cc1ccc(C)c(NC(=O)CC/C(=N\NC(=O)C(=O)NN)C(C)C(=O)c2ccc(O)cc2)c1` (stereo unspecified), the TGI is over 100 µM. Still for that read-out and setting: the figure for `N=C1CSC2=NC3=C(CCC/C3=C\c3ccccc3)C(c3ccccc3)N12` (stereo unspecified) is 10.6 µM; for `COc1ccc(CNc2cc(OC)c(OC)c(OC)c2)cc1` it is 32.3 µM. With `COc1ccccc1C1C(C(=O)Nc2ccccc2)=C(C)NC(C)=C1C(=O)Nc1ccccc1`, the TGI is over 100 µM. Same read-out and setting: the figure for `OCc1ccc2[n+](c1)CCC1c3ccccc3NC21` (stereo unspecified) is over 300 µM.
